Legend:
Assay type in all cases: in vivo, Gossypium hirsutum
[1] = tested on: cotton event pDAB4468.19.10.3; experiment: Tolerance to triclopyr and fluroxypyr in greenhouse trials (percent visual injury); settings: for % Injury: cotton event, 3 leaf stage, greenhouse
Description: (§1) The tolerance of cotton event pDAB4468.19.10.3 to post-emergence applications of the pyridyloxyacetic acid herbicides, triclopyr and fluroxypyr, was studied in greenhouse trials. Herbicide tolerance was assessed following a single post-emergence application of triclopyr or fluroxypyr. Seed from cotton event pDAB4468.19.10.3 were heat treated in a water bath at 82.5° C. for 1 minute and then planted in metro mix 360 media and grown in a greenhouse. The temperatures in the greenhouse averaged 27° C. and the photoperiod was set at 16 hours of light and eight hours of dark, with maximum light intensity. Plants were allowed to grow until the 3 leaf stage of development and a non-randomized study was conducted with three replications and three treatments for each herbicide. Plants were sprayed in a track sprayer calibrated to deliver 187 L/ha of the commercial formulations of triclopyr (Garlon 4TM, Dow AgroSciences, Indianapolis, Ind.) and fluroxypyr ([…], Dow AgroSciences, Indianapolis, Ind.). A non-transformed Coker 310 variety of cotton was used as a negative control.

[2] = tested on: non-transformed Coker 310 variety of cotton; experiment: Triclopyr and fluroxypyr greenhouse trials, negative control plants (percent visual injury); settings: 3 leaf stage
Description: as §1

[3] = tested on: cotton event pDAB4468.19.10.3 (aad-12); experiment: Tolerance to butanoic acids of triclopyr and fluroxypyr in greenhouse trials (% injury); settings: 2-3 leaf stage
Description: (§2) Herbicide tolerance was assessed following a single post-emergence application of the two molecules. Seed from cotton event pDAB4468.19.10.3 were heat treated in a water bath at 82.5° C. for 1 minute and then planted in metro mix 360 media and grown in a greenhouse. The temperatures in the greenhouse averaged 27° C. and the photoperiod was set at 16 hours of light and eight hours of dark, with maximum light intensity. Plants were allowed to grow until the 2-3 leaf stage of development and a non-randomized study was conducted with four replications and three treatments for each herbicide. […] In addition, a crop oil concentrate was added to a final concentration of 1.25%. Plants were sprayed in a track sprayer calibrated to deliver 187 L/ha of the formulated technical material. A non-transformed Coker 310 variety of cotton was used as a negative control.

[4] = tested on: non-transformed Coker 310 variety of cotton (WT); experiment: Butanoic acids of triclopyr and fluroxypyr greenhouse trials, negative control plants (% injury); settings: 2-3 leaf stage
Description: as §2

[5] = tested on: cotton event pDAB4468.19.10.3; experiment: Tolerance to glufosinate in field trials (percent visual injury); settings: for Percent visual injury: single post-emergence application, 6-8 leaf
Description: The tolerance of cotton event pDAB4468.19.10.3 to post-emergence applications of glufosinate was studied in field trials during the 2010 growing season. Herbicide tolerance was assessed following a single post-emergence application of glufosinate applied to 6-8 leaf cotton event pDAB4468.19.10.3, which represents a herbicide application timing typically utilized with glufosinate to achieve satisfactory weed control.
Glufosinate tolerance was measured by assessing cotton plants for injury at 2-4 days after application (DAA), 7-9 DAA, 13-19 DAA and 22-29 DAA. Injury was assessed by assigning a percent visual injury rating using a linear percentage scale (1-100) where 0% represents no visible herbicide injury and 100% represents plant death. The ratings were a composite score for any herbicide symptomology including chlorosis, leaf necrosis, stunting and plant death. Herbicide symptomology (where present) was primarily chlorosis and necrosis.
Field trials were conducted at eleven locations across the United States in typical cotton producing areas of Alabama, Arkansas, California, Georgia, Louisiana, Mississippi, North Carolina, South Carolina, and Tennessee. Trials were designed with four replications per treatment. Each replication was separated by a bare-soil alley 10-15 feet wide. Plot size for individual treatments was 2 rows by 20 feet long with rows typically spaced 36-40 inches apart. Experimental treatments consisted of cotton event pDAB4468.19.10.3 sprayed with glufosinate ammonium (Ignite 280 SL™, Bayer, Research Triangle, N.C.) at either 0, 542, 1084, or 2168 grams acid equivalent per hectare (g ae/ha) applied in 15 gallons per acre of final spray solution. A non-transformed cotton comparator treatment was not included in these experiments since treatment with glufosinate at rates much lower than the lowest rate tested (542 g ae/ha) would be expected to result in plant death.

[6] = tested on: cotton event pDAB4468.19.10.3; experiment: Agronomic characterization in field trials with and without herbicide applications; settings: sprayed vs unsprayed event plants; standard field application rates
Source text: The agronomic characteristics of cotton event pDAB4468.19.10.3 were quantified in field trials conducted across geographically different locations throughout the cotton belt in 2010. These studies compared the agronomic performance of cotton event pDAB4468.19.10.3 (with and without applications of the herbicides 2,4-D and glufosinate) to the non-transgenic near-isoline control, Coker 310. No agronomically meaningful unintended differences were observed between cotton event pDAB4468.19.10.3 and the Coker 310 control plants. […] Additionally, the agronomic performance of cotton event pDAB4468.19.10.3 was not altered as a result of the application of the herbicides, 2,4-D and glufosinate, as compared to the cotton event pDAB4468.19.10.3 plants which were not sprayed with the herbicide treatments. […]
Seeds of cotton event pDAB4468.19.10.3 and seeds of the near-isoline control line, Coker 310, were planted at a rate of 80 seeds per 20 ft row with a row spacing of 34-38 inches (86.36 cm-96.52 cm). […] The measured agronomic characteristics were equivalent for cotton event pDAB4468.19.10.3 as compared to the Coker 310 near-isoline control plants for all of the agronomic characteristics measured and statistically analyzed. […]

Nc1c(Cl)c(F)nc(OCC(=O)O)c1Cl [Fluroxypyr, fluroxypyr]
% Injury ([1]; 70 g ae/ha, 3 DAA): 0.5 e %
% Injury ([1]; 70 g ae/ha, 11 DAA): 2.3 b %
% Injury ([1]; 140 g ae/ha, 3 DAA): 0.5 e %
% Injury ([1]; 140 g ae/ha, 11 DAA): 2.5 b %
% Injury ([1]; 280 g ae/ha, 3 DAA): 6.5 d %
% Injury ([1]; 280 g ae/ha, 11 DAA): 6.3 a %
herbicide level to which the event provides tolerance ([1]; by 3 DAA): up to 280 g ae/ha
% Injury ([2]; 70 g ae/ha, 3 DAA): 11.3 c %
% Injury ([2]; 70 g ae/ha, 11 DAA): 43.8 ab %
% Injury ([2]; 140 g ae/ha, 3 DAA): 27.3 b %
% Injury ([2]; 140 g ae/ha, 11 DAA): 36.3 b %
% Injury ([2]; 280 g ae/ha, 3 DAA): 33.3 a %
% Injury ([2]; 280 g ae/ha, 11 DAA): 43.8 ab %
% Injury ([3]; 140 g ai/ha, 1 DAA): 21.5a %
% Injury ([3]; 140 g ai/ha, 3 DAA): 8.8c %
% Injury ([3]; 140 g ai/ha, 6 DAA): 7.8b %
% Injury ([3]; 140 g ai/ha, 6 HAA): 19a %
% Injury ([3]; 140 g ai/ha, 14 DAA): 21.3ab %
% Injury ([3]; 280 g ai/ha, 1 DAA): 19.8a %
% Injury ([3]; 280 g ai/ha, 3 DAA): 15.3b %
% Injury ([3]; 280 g ai/ha, 6 DAA): 11.5a %
% Injury ([3]; 280 g ai/ha, 6 HAA): 14a %
% Injury ([3]; 280 g ai/ha, 14 DAA): 17.5b %
% Injury ([3]; 560 g ai/ha, 1 DAA): 21.5a %
% Injury ([3]; 560 g ai/ha, 3 DAA): 21.3a %
% Injury ([3]; 560 g ai/ha, 6 DAA): 14.3a %
% Injury ([3]; 560 g ai/ha, 6 HAA): 17a %
% Injury ([3]; 560 g ai/ha, 14 DAA): 25a %
% Injury ([4]; 140 g ai/ha, 1 DAA): 24.3a %
% Injury ([4]; 140 g ai/ha, 3 DAA): 32.5bc %
% Injury ([4]; 140 g ai/ha, 6 DAA): 38.8a %
% Injury ([4]; 140 g ai/ha, 6 HAA): 23.8a %
% Injury ([4]; 140 g ai/ha, 14 DAA): 60ab %
% Injury ([4]; 280 g ai/ha, 1 DAA): 25a %
% Injury ([4]; 280 g ai/ha, 3 DAA): 37.5ab %
% Injury ([4]; 280 g ai/ha, 6 DAA): 38.8a %
% Injury ([4]; 280 g ai/ha, 6 HAA): 22.5ab %
% Injury ([4]; 280 g ai/ha, 14 DAA): 65ab %
% Injury ([4]; 560 g ai/ha, 1 DAA): 23.5a %
% Injury ([4]; 560 g ai/ha, 3 DAA): 38.8a %
% Injury ([4]; 560 g ai/ha, 6 DAA): 41.3a %
% Injury ([4]; 560 g ai/ha, 6 HAA): 22.5ab %
% Injury ([4]; 560 g ai/ha, 14 DAA): 67.5a %

O=C(O)COc1nc(Cl)c(Cl)cc1Cl [Triclopyr, triclopyr]
% Injury ([1]; 140 g ae/ha, 3 DAA): 13.0 c %
% Injury ([1]; 140 g ae/ha, 11 DAA): 3.5 b %
% Injury ([1]; 280 g ae/ha, 3 DAA): 16.5 b %
% Injury ([1]; 280 g ae/ha, 11 DAA): 3.3 b %
% Injury ([1]; 560 g ae/ha, 3 DAA): 19.5 a %
% Injury ([1]; 560 g ae/ha, 11 DAA): 3.3 b %
% Injury ([2]; 140 g ae/ha, 3 DAA): 33.8 a %
% Injury ([2]; 140 g ae/ha, 11 DAA): 36.3 b %
% Injury ([2]; 280 g ae/ha, 3 DAA): 33.8 a %
% Injury ([2]; 280 g ae/ha, 11 DAA): 40.0 ab %
% Injury ([2]; 560 g ae/ha, 3 DAA): 36.3 a %
% Injury ([2]; 560 g ae/ha, 11 DAA): 48.8 a %
% Injury ([3]; 140 g ai/ha, 1 DAA): 8.8a %
% Injury ([3]; 140 g ai/ha, 3 DAA): 2a %
% Injury ([3]; 140 g ai/ha, 6 DAA): 2.8a %
% Injury ([3]; 140 g ai/ha, 6 HAA): 19.5a %
% Injury ([3]; 140 g ai/ha, 14 DAA): 0a %
% Injury ([3]; 280 g ai/ha, 1 DAA): 8a %
% Injury ([3]; 280 g ai/ha, 3 DAA): 1.8a %
% Injury ([3]; 280 g ai/ha, 6 DAA): 0.5a %
% Injury ([3]; 280 g ai/ha, 6 HAA): 15.8a %
% Injury ([3]; 280 g ai/ha, 14 DAA): 0a %
% Injury ([3]; 560 g ai/ha, 1 DAA): 9.5a %
% Injury ([3]; 560 g ai/ha, 3 DAA): 3.5a %
% Injury ([3]; 560 g ai/ha, 6 DAA): 3.5a %
% Injury ([3]; 560 g ai/ha, 6 HAA): 17.3a %
% Injury ([3]; 560 g ai/ha, 14 DAA): 0a %
% Injury ([4]; 140 g ai/ha, 1 DAA): 24.3a %
% Injury ([4]; 140 g ai/ha, 3 DAA): 30a %
% Injury ([4]; 140 g ai/ha, 6 DAA): 33.8a %
% Injury ([4]; 140 g ai/ha, 6 HAA): 20.8a %
% Injury ([4]; 140 g ai/ha, 14 DAA): 56.3ab %
% Injury ([4]; 280 g ai/ha, 1 DAA): 23a %
% Injury ([4]; 280 g ai/ha, 3 DAA): 32.5a %
% Injury ([4]; 280 g ai/ha, 6 DAA): 33.8a %
% Injury ([4]; 280 g ai/ha, 6 HAA): 20.3a %
% Injury ([4]; 280 g ai/ha, 14 DAA): 60ab %
% Injury ([4]; 560 g ai/ha, 1 DAA): 24.5a %
% Injury ([4]; 560 g ai/ha, 3 DAA): 32.5a %
% Injury ([4]; 560 g ai/ha, 6 DAA): 35a %
% Injury ([4]; 560 g ai/ha, 6 HAA): 21.8a %
% Injury ([4]; 560 g ai/ha, 14 DAA): 67.5a %

CP(=O)(O)CCC(N)C(=O)O (stereo not shown) [glufosinate]
herbicide injury noted in the field experiments ([5]; 542-2168 g ae/ha, with the exception of transient chlorosis at 2168 g ae/ha at 2-4 & 7-9 DAA): no agronomically significant herbicide injury
Percent visual injury ([5]; 542 g ae/ha, 2-4 DAA): 2.7%
Percent visual injury ([5]; 542 g ae/ha, 7-9 DAA): 1.9%
Percent visual injury ([5]; 542 g ae/ha, 13-19 DAA): 0.1%
Percent visual injury ([5]; 542 g ae/ha, 22-29 DAA): 0.0%
Percent visual injury ([5]; 1084 g ae/ha, 2-4 DAA): 6.6%
Percent visual injury ([5]; 1084 g ae/ha, 7-9 DAA): 4.0%
Percent visual injury ([5]; 1084 g ae/ha, 13-19 DAA): 0.2%
Percent visual injury ([5]; 1084 g ae/ha, 22-29 DAA): 0.0%
crop injury beyond the 7-9 DAA evaluation interval ([5]; 2168 g ae/ha (>4x rate required for weed control)): little crop injury
Percent visual injury ([5]; 2168 g ae/ha, 2-4 DAA): 13.5%
Percent visual injury ([5]; 2168 g ae/ha, 7-9 DAA): 10.0%
Percent visual injury ([5]; 2168 g ae/ha, 13-19 DAA): 2.3%
Percent visual injury ([5]; 2168 g ae/ha, 22-29 DAA): 0.3%
agronomic performance of the event as a result of herbicide application [6]: not altered
